The subject of this test is rd1 mice expressing SNAP-mGluR2 in RGCs. Briefly: 2-chamber light/dark light aversion test, SNAP-mGluR2 in RGCs. The test is classed as in vivo, mouse. How it is done:
Mouse experiments were conducted under the express approval of the University of California Animal Care and Use Committee, wt mice (C57BL/6J) and rd1 mice (C3H) were purchased from the Jackson Laboratory and housed on a 12-h light/dark cycle with food and water ad libitum. cDNA encoding SNAP-mGluR2 was inserted in an established viral cassette under control of either the human synapsin promoter (hsyn-1) for expression in RGCs or a 4-copy concatemer of the mouse grm6 minimal promoter (4×grm6) for expression in ON-BCs and packaged in the AAV 2/2-4YF capsid. The vector, containing 10^10-10^12 viral genomes was delivered in a 2 µl volume to the vitreous of the rd1 mouse eye via microinjection. rAAV injections were at p30-p60 and in vivo and in vitro experiments at p90-p160. AAVs were produced as previously described.
Photoswitch compounds were synthesized using the protocol described in Broichhagen, J., et al. (2015) ACS Cent Sci 1, 383-393. Stock solution of […] BGAG12,460 (L-diastereomer) in 100% pharmaceutical grade DMSO (Cryoserv; Bioniche Pharma) was diluted 1:100 in sterile PBS for a final working solution of 1 mM in 1% DMSO. Working solutions were either prepared before administration, prepared in stock stored in the freezer and used as required, or salvaged from the recording bath and stored (either RT or freezer) for reuse. Application of BGAG12,460 or BGAG12 on retinal explants were performed in a volume of 200 μL at a concentration of 50 μM to 50 nM BGAG12,460 (in PBS with >1% DMSO). For in vivo behavioral experiments, a 2-μL volume of 1 mM or 3.5 μL (final vitreal concentration of […]) of BGAG12,460 solution (in PBS with 1% DMSO) was injected into eyes that treated with AAV>6 wks earlier). For in vivo concentration dependence experiments, the mouse eye was assumed to contain a volume of 5.3 μL and a 2-μL volume of 3.5 μM, 1.825 μM and 0.1825 μM BGAG12,460 solution (in PBS with 1% DMSO) was injected into eyes to obtain a final concentration of 1 μM, 500 nM and 50 nM^62. For hydrated slow release 5% pharmaceutical grade beta cyclodextrin (cyclodex) in PBS was mixed with BGAG12,460 for a final concentration of 3 μM and 2 μL were injected bilaterally into the mouse eye. MAG0460 was synthesized and administered in 2 μL at a concentration of 100 μM.
The 2-chamber light-dark passive avoidance test was performed. White light (wavelength range) at ˜100 μW cm^2 or either blue light (460/45 nm) or green light (535/50 nm) at 0.5-25 μW cm^2 was mounted above the chamber with homogeneously distributed light.
Animal movements were tracked using IR sensors on the shuttle box. Time spent in the light and dark chambers was measured and analyzed using Graphic State and Graphic State RT (Coulbourn Instruments).
Natural light aversion behavior was tested. […]

Take `Nc1nc(OCc2ccc(CNC(=O)CCCC(=O)N[C@H](CCC(=O)N[C@H](CCC(=O)NCCOCCOCCOCCOCCOCCOCCOCCOCCOCCOCCOCCOCCC(=O)NCCNc3ccc(/N=N/c4ccc(NC(=O)CCC[C@@H](C[C@H](N)C(=O)O)C(=O)O)cc4)cc3)C(=O)NCCOCCOCCOCCOCCOCCOCCOCCOCCOCCOCCOCCOCCC(=O)NCCNc3ccc(/N=N/c4ccc(NC(=O)CCC[C@@H](C[C@H](N)C(=O)O)C(=O)O)cc4)cc3)C(=O)N[C@H](CCC(=O)NCCOCCOCCOCCOCCOCCOCCOCCOCCOCCOCCOCCOCCC(=O)NCCNc3ccc(/N=N/c4ccc(NC(=O)CCC[C@@H](C[C@H](N)C(=O)O)C(=O)O)cc4)cc3)C(=O)NCCOCCOCCOCCOCCOCCOCCOCCOCCOCCOCCOCCOCCC(=O)NCCNc3ccc(/N=N/c4ccc(NC(=O)CCC[C@@H](C[C@H](N)C(=O)O)C(=O)O)cc4)cc3)cc2)c2nc[nH]c2n1` [^4×BGAG12,460]: the “dark preference three weeks after injection” value (in PBS intravitreal) is listed as “disappeared”. Besides, the “light aversion (time in dark versus illuminated chamber)” value (in PBS intravitreal, first week after injection, white screen 88 uW/cm^2) is “spent more time in the dark chamber than in the illuminated chamber”. Besides, for the setting “intensity-response relation”, the “light aversion at 0.2 μW/cm^2” value is listed as “operating at chance” and the “light intensity giving maximal light-aversion behavior” value was 25 μW/cm^2.

Values taken from patent publication US12076329B2, “Compositions and methods for enhancing visual function” (The Regents of the University of California, priority 2020, dated 2024).
